Source: ChEMBL document CHEMBL4251633, “Design, synthesis, biological evaluation and cocrystal structures with tubulin of chiral β-lactam bridged combretastatin A-4 analogues as potent antitumor agents” (Eur J Med Chem, 2018)
Active and inactive are the calls of the source. No cut-off for these calls is given here.

How the values were obtained:
HeLa [1] = experiment: Inhibition of alpha-tubulin polymerization in human HeLa cells assessed as increase in ratio of supernatant faction to pellet fraction at 500 nM after 6 hrs by Western blot analysis; format: cell-based
SK-OV-3 = experiment: Antiproliferative activity against human SKOV3 cells after 48 hrs by MTT assay; settings: SK-OV-3, 48 h
A2780 [2] = experiment: Antitumor activity against human A2780 cells xenografted in Balb/c nude mouse assessed as induction of tumor necrosis at 8 mg/kg, ip once in every 2 days measured after 14 days by H and E staining based assay; format: functional, organism-based
[3] = Acute toxicity in ICR mouse assessed as survival rate at 275 mg/kg, ip measured on day 14 (reference value: 100%); format: organism-based; settings: in vivo
Mus musculus [4] = experiment: Acute toxicity in ICR mouse assessed as death at 100 to 200 mg/kg, ip measured after 4 days; format: organism-based; settings: in vivo, 96 h
A2780 [5] = experiment: Antitumor activity against human A2780 cells xenografted in Balb/c nude mouse assessed as tumor volume inhibition at 8 mg/kg, ip once in every 2 days measured up to 14 days relative to control; format: functional
[6] = Growth inhibition of HOSEC at 1 uM after 48 hrs by MTT assay relative to control; settings: human, HOSEC cells; read-out: GI
HeLa [7] = experiment: Induction of apoptosis in human HeLa cells assessed as live cells at 100 nM after 48 hrs by Annexin V-FITC/propidium iodide staining based flow cytometry (reference value: 96.5%); format: functional
Mus musculus [8] = experiment: Acute toxicity in ICR mouse assessed as death at 150 mg/kg, ip measured after 3 days; format: organism-based; settings: in vivo, 72 h
HeLa [9] = experiment: Induction of apoptosis in human HeLa cells after 48 hrs by Annexin V-FITC/propidium iodide staining based flow cytometry; format: functional, cell-based
[10] = Acute toxicity in ICR mouse assessed as survival rate at 200 mg/kg, ip measured on day 14 (reference value: 100%); format: organism-based; settings: in vivo
HeLa [11] = experiment: Cell cycle arrest in human HeLa cells assessed as accumulation at G2/M-phase at 50 nM after 24 hrs by propidium iodide staining based flow cytometry; format: functional
A2780 [12] = experiment: Antitumor activity against human A2780 cells xenografted in Balb/c nude mouse assessed as isolated tumor weight inhibition at 8 mg/kg, ip once in every 2 days measured after 14 days; format: functional, organism-based
HeLa [13] = experiment: Induction of apoptosis in human HeLa cells assessed as late apoptotic cells at 200 nM after 48 hrs by Annexin V-FITC/propidium iodide staining based flow cytometry (reference value: 2%); format: functional
A2780 [14] = experiment: Antitumor activity against human A2780 cells xenografted in Balb/c nude mouse assessed as tumor weight inhibition at 8 mg/kg, ip once in every 2 days measured up to 14 days; format: functional, organism-based
[15] = molecular target: Mitotic checkpoint serine/threonine-protein kinase BUB1 beta (Homo sapiens) (UniProt O60566); experiment: Induction of BubR1 hyperphosphorylation in human HeLa cells by Western blot analysis; format: cell-based
Sequence of Mitotic checkpoint serine/threonine-protein kinase BUB1 beta (Homo sapiens) (O60566 whole entry): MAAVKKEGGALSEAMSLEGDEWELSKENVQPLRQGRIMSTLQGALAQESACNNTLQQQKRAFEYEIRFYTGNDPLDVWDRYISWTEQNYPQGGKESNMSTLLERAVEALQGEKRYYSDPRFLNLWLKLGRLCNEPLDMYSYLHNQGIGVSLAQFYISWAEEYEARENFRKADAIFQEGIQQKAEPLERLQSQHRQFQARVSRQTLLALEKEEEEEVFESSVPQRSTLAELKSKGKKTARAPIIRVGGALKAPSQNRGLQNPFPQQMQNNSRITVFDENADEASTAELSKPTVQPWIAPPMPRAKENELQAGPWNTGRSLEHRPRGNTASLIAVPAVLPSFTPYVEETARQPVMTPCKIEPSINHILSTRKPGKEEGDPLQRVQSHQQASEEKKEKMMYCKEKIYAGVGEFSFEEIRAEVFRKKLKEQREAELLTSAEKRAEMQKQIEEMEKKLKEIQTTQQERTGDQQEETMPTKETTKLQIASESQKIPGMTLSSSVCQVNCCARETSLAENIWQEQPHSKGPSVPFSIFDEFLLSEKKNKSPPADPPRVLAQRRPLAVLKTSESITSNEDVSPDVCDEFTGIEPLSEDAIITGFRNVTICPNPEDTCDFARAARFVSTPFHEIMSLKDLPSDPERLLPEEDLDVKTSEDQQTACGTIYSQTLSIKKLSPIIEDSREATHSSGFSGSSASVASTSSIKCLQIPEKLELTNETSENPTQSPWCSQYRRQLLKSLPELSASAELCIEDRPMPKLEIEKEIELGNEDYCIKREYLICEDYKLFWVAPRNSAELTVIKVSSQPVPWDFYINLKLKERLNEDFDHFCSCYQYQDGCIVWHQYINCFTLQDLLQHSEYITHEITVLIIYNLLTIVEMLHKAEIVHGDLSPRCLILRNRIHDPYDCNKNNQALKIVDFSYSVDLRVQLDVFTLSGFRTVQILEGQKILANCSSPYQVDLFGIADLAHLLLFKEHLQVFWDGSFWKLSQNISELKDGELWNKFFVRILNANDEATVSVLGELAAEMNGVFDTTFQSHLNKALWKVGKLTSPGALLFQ

HeLa [16] = experiment: Induction of apoptosis in human HeLa cells assessed as necrotic cells at 100 nM after 48 hrs by Annexin V-FITC/propidium iodide staining based flow cytometry (reference value: 0.9%); format: functional
Mus musculus [17] = experiment: Acute toxicity in ICR mouse assessed as death at 100 to 125 mg/kg, ip measured after 1 day; format: organism-based; settings: in vivo, 24 h
Sus scrofa = species: Sus scrofa; experiment: (§1) Inhibition of pig brain tubulin polymerization measured every 1 min for 20 mins by spectrophotometric method
[18] = as §1; set-up: species or system Sus scrofa
MDA-MB-231 = experiment: Antiproliferative activity against human MDA-MB-231 cells after 48 hrs by MTT assay; format: functional, cell-based; settings: MDA-MB-231, 48 h
HeLa [19] = experiment: Upregulation of p53 protein expression in human HeLa cells after 48 hrs by Western blot analysis; format: functional, cell-based
HeLa [20] = experiment: Antiproliferative activity against human HeLa cells after 48 hrs by MTT assay; format: functional, cell-based
HeLa [21] = experiment: Induction of apoptosis in human HeLa cells assessed as early apoptotic cells at 100 nM after 48 hrs by Annexin V-FITC/propidium iodide staining based flow cytometry (reference value: 0.7%); format: functional
HeLa [22] = experiment: Induction of apoptosis in human HeLa cells assessed as live cells at 200 nM after 48 hrs by Annexin V-FITC/propidium iodide staining based flow cytometry (reference value: 96.5%); format: functional
HeLa [23] = experiment: Upregulation of Cyclin-B1 protein expression in human HeLa cells at 50 to 200 nM by Western blot analysis; format: functional, cell-based
A2780 [24] = experiment: cells; settings: Homo sapiens, A2780, 48 h
Description: Antiproliferative activity against human A2780 cells after 48 hrs by MTT assay

HeLa [25] = experiment: Induction of apoptosis in human HeLa cells assessed as live cells at 50 nM after 48 hrs by Annexin V-FITC/propidium iodide staining based flow cytometry (reference value: 96.5%); format: functional
HeLa [26] = experiment: Cell cycle arrest in human HeLa cells assessed as accumulation at G2/M-phase at 25 to 50 nM after 24 hrs by propidium iodide staining based flow cytometry; format: functional
[27] = Acute toxicity in ICR mouse assessed as survival rate at 150 mg/kg, ip measured on day 14 (reference value: 100%); format: organism-based; settings: in vivo
Mus musculus [28] = experiment: Toxicity in Balb/c nude mouse xenografted with human A2780 cells assessed as abnormality in spleen at 8 mg/kg, ip once in every 2 days measured after 14 days by H and E staining based assay; format: organism-based; settings: in vivo, 336 h
HUVEC = experiment: Antiangiogenic activity against HUVEC assessed as disruption of capillary-like tube formation at 50 nM after 12 hrs by inverted microscopic method; format: functional, cell-based; settings: Homo sapiens
[29] = Acute toxicity in ICR mouse assessed as survival rate at 125 mg/kg, ip measured on day 14 (reference value: 100%); format: organism-based; settings: in vivo
Mus musculus [30] = experiment: Acute toxicity in ICR mouse assessed as death at 100 mg/kg, ip measured after 2 days; format: organism-based; settings: in vivo, 48 h
Mus musculus [31] = experiment: Toxicity in Balb/c nude mouse xenografted with human A2780 cells assessed as abnormality in kidney at 8 mg/kg, ip once in every 2 days measured after 14 days by H and E staining based assay; format: organism-based; settings: in vivo, 336 h
Mus musculus [32] = experiment: Acute toxicity in ICR mouse assessed as death at 100 to 275 mg/kg, ip measured after 5 to 14 days; format: organism-based; settings: in vivo
HeLa [33] = experiment: Induction of apoptosis in human HeLa cells assessed as early apoptotic cells at 50 nM after 48 hrs by Annexin V-FITC/propidium iodide staining based flow cytometry (reference value: 0.7%); format: functional
HeLa [34] = experiment: Induction of apoptosis in human HeLa cells assessed as necrotic cells at 200 nM after 48 hrs by Annexin V-FITC/propidium iodide staining based flow cytometry (reference value: 0.9%); format: functional
HeLa [35] = experiment: Upregulation of Bax protein expression in human HeLa cells after 48 hrs by Western blot analysis; format: functional, cell-based
Homo sapiens = species: Homo sapiens; experiment: Disruption of microtubule structure in human SKOV3 cells assessed as decrease in density at 100 nM after 24 hrs by DAPI staining based immunofluorescence assay; format: cell-based
HeLa [36] = experiment: Induction of apoptosis in human HeLa cells assessed as late apoptotic cells at 100 nM after 48 hrs by Annexin V-FITC/propidium iodide staining based flow cytometry (reference value: 2%); format: functional

COc1ccc([C@H]2[C@H](C)C(=O)N2c2cc(OC)c(OC)c(OC)c2)cc1O
tubulin polymerization inhibition (active/inactive) (HeLa [1]): Active | IC50 (SK-OV-3): 3 nM | Activity (A2780 [2]): Active | survival at 14 day [3]: 10% | Activity (Mus musculus [4]): Non-Toxic | inhibition in vivo at 8 mg/kg (A2780 [5]): 76.3% | inhibition at 48 h, 1 µM [6]: < 50% | Activity (HeLa [7]): 27.3% | Activity (Mus musculus [8]): Non-Toxic | Activity (HeLa [9]): Dose-dependent effect | survival at 14 day [10]: 30% | Activity (HeLa [11]): 100% | inhibition (A2780 [12]): Active | Activity (HeLa [13]): 33.8% | inhibition (A2780 [14]): Active | Activity [15]: Dose-dependent effect | Activity (HeLa [16]): 7.5% | Activity (Mus musculus [17]): Non-Toxic | inhibition (Sus scrofa): Dose-dependent effect | IC50 [18]: 1700 nM | IC50 (MDA-MB-231): 3 nM | Activity (HeLa [19]): Dose-dependent effect | IC50 (HeLa [20]): 1 nM | Activity (HeLa [21]): 35.2% | Activity (HeLa [22]): 21.6% | Activity (HeLa [23]): Active | IC50 (A2780 [24]): 2 nM | Activity (HeLa [25]): 42% | Activity (HeLa [26]): Active | survival at 14 day [27]: 40% | Activity (Mus musculus [28]): Non-Toxic | Activity (HUVEC): Active | survival at 14 day [29]: 70% | Activity (Mus musculus [30]): Non-Toxic | Activity (Mus musculus [31]): Non-Toxic | Activity (Mus musculus [32]): Non-Toxic | Activity (HeLa [33]): 29.3% | Activity (HeLa [34]): 7.2% | Activity (HeLa [35]): Dose-dependent effect | Activity (Homo sapiens): Active | Activity (HeLa [36]): 29.9%
